From patent US20250230193A1, “CYCLIC COMPOUND HAVING SELECTIVE KRAS INHIBITORY EFFECT ON HRAS AND NRAS” (CHUGAI SEIYAKU KABUSHIKI KAISHA, priority 2022, published 2025) come the findings set out here.

Where a SMILES comes first, the peptide text is derived from it. Bridges are numbered along the chain shown (N, C = ends). [ ]: non-standard residue; d: D form. The star is where a group is joined. hPhe(3-Cl-4-CF3) = N[C@@H](CCc1ccc(C(F)(F)F)c(Cl)c1)C(=O)O; NPrPhe(4-CF3) = CCCN[C@@H](Cc1ccc(C(F)(F)F)cc1)C(=O)O; NMeGly(cPent) = CN[C@H](C(=O)O)C1CCCC1; Pro(4,4-F2) = O=C(O)[C@@H]1CC(F)(F)CN1; NMeD = CN[C@@H](CC(=O)O)C(=O)O; NMeL = CN[C@@H](CC(C)C)C(=O)O; Morpholide = C1CN(*)CCO1; Ac5c = NC1(C(=O)O)CCCC1; X25 = CC1(C)CCN(*)C1; Sar = CNCC(=O)O

Assay [1] addresses GDP-bound NRAS wild-type protein (Homo sapiens, UniProt P01111). The assay can be described thus: Binding to NRAS by surface plasmon resonance (SPR), Single Cycle Kinetics. (In SPR one partner is held on a chip, and binding of the other changes the refractive index at the surface.)
Assay [2] concerns the target GDP-bound HRAS wild-type protein (Homo sapiens, UniProt P01112). Kind of assay: Binding to HRAS by surface plasmon resonance (SPR), Single Cycle Kinetics.
Setting [3] is: SPR, GDP-bound wild-type proteins.
[4] abbreviates: KD ratio, GDP-bound NRAS wild-type vs GDP-bound KRAS wild-type, SPR.
Where [5] appears, read: KD ratio, GDP-bound HRAS wild-type vs GDP-bound KRAS wild-type, SPR.

GDP-bound NRAS wild-type protein, sequence (P01111 whole entry): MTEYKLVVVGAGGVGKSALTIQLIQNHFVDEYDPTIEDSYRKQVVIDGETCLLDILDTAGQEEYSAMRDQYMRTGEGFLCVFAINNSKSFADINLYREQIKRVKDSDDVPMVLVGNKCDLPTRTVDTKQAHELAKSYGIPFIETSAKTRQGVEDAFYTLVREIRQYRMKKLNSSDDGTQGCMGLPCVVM
GDP-bound HRAS wild-type protein, sequence (P01112 whole entry): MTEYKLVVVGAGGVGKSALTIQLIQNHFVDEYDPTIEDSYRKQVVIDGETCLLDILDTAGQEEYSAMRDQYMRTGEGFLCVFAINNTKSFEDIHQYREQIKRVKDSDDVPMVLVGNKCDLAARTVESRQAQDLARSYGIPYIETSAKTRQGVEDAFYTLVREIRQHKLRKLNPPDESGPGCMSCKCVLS

As for `CCCN1C(=O)CN(C)C(=O)CN(C)C(=O)[C@H]([C@@H](C)CC)NC(=O)[C@H](CC(C)C)N(C)C(=O)C[C@@H](C(=O)N2CCC(C)(C)C2)N(C)C(=O)[C@H](C2CCCC2)N(C)C(=O)C2(CCCC2)NC(=O)[C@@H]2CCCN2C(=O)[C@H](CCc2ccc(C(F)(F)F)c(Cl)c2)NC(=O)CN(C)C(=O)[C@@H]1Cc1ccc(C(F)(F)F)cc1` [PP0177] ([NMeL]I[Sar][Sar][NPrPhe(4-CF3)][Sar][hPhe(3-Cl-4-CF3)]P[Ac5c][NMeGly(cPent)][NMeD]-X25; lactam N-11), in assay [1] (SPR), the “NRAS/KRAS (ratio of KD for GDP-bound NRAS wild-type to KD for KRAS)” value is “B (a compound having 3 or more and less than 10 is denoted as B)”. Also, the “HRAS/KRAS (ratio of KD for GDP-bound HRAS wild-type to KD for KRAS)” value in assay [2] (SPR) was “C (A compound having a KD ratio of 0.1 or more and less than 3 is denoted as C)”.
For `CCCN1C(=O)CN(C)C(=O)CNC(=O)[C@H]([C@@H](C)CC)NC(=O)[C@H](CC(C)C)N(C)C(=O)C[C@@H](C(=O)N2CCOCC2)NC(=O)[C@H](C2CCCC2)N(C)C(=O)C2(CCCC2)NC(=O)[C@@H]2CC(F)(F)CN2C(=O)[C@H](CCc2ccc(C(F)(F)F)c(Cl)c2)NC(=O)CN(C)C(=O)[C@@H]1Cc1ccc(C(F)(F)F)cc1` [PP0327] ([NMeL]IG[Sar][NPrPhe(4-CF3)][Sar][hPhe(3-Cl-4-CF3)][Pro(4,4-F2)][Ac5c][NMeGly(cPent)]D-Morpholide; lactam N-11), in assay [1] (SPR), the “NRAS/KRAS (ratio of KD for GDP-bound NRAS wild-type to KD for KRAS)” value is “B (a compound having 3 or more and less than 10 is denoted as B)”. For the same molecule, in assay [2] (SPR), the “HRAS/KRAS (ratio of KD for GDP-bound HRAS wild-type to KD for KRAS)” value is “B (a compound having 3 or more and less than 10 is denoted as B)”.
Consider `CCC[C@H]1C(=O)N[C@@H]([C@@H](C)CC)C(=O)N(C)CC(=O)N(C)[C@H]2C/C=C\CCN(C2=O)[C@@H](Cc2ccc(C)cc2)C(=O)N(C)CC(=O)N[C@@H](CCc2ccc(C(F)(F)F)c(OC)c2)C(=O)N2C[C@H](OCC)C[C@H]2C(=O)NC2(CC(C)(C)C2)C(=O)N(C)[C@@H](CC(C)C)C(=O)N(C)[C@H](C(=O)N(C)C)CC(=O)N1C` [PP3008], for which the “NRAS/KRAS (ratio of KD value with respect to GDP-bound NRAS wild-type protein to KD value with respect to KRAS)” value in assay [1] (setting [3]) is “A (a compound having 10 or more and less than 20 is denoted as A)”. The “HRAS/KRAS (ratio of KD value with respect to GDP-bound HRAS wild-type protein to KD value with respect to KRAS)” value in assay [2] (setting [3]) is “A (a compound having 10 or more and less than 20 is denoted as A)”.
Regarding `CCCN(C)C(=O)[C@@H]1CC(=O)N(C)[C@@H](C)C(=O)N[C@@H]([C@@H](C)CC)C(=O)N(C)CC(=O)N(C)[C@H]2C/C=C\CCN(C2=O)[C@@H](Cc2ccc(C(F)(F)F)cc2)C(=O)N(C)CC(=O)N[C@@H](CCc2cc(F)c(C(F)(F)F)c(F)c2)C(=O)N2C[C@H](F)C[C@H]2C(=O)NC2(CC(C)(C)C2)C(=O)N(C)[C@@H](C2CCCC2)C(=O)N1C` [PP1663], the “NRAS/KRAS (ratio of KD value for NRAS to KD value for KRAS)” value in assay [1] (setting [4]) is listed as “AA (a compound having 20 or more is denoted as AA)”. The “HRAS/KRAS (ratio of KD value for HRAS to KD value for KRAS)” value in assay [2] (setting [5]) was “A (a compound having 10 or more and less than 20 is denoted as A)”.
As for `CCO[C@@H]1C[C@H]2C(=O)NC3(CC(C)(C)C3)C(=O)N(C)[C@@H](C(CC)CC)C(=O)N(C)[C@H](C(=O)N(C)C)CC(=O)N(C)[C@@H](CC(C)C)C(=O)N[C@@H]([C@@H](C)CC)C(=O)N(C)CC(=O)N(C)[C@H]3C/C=C\CCN(C3=O)[C@@H](Cc3ccc(C)cc3)C(=O)N(C)CC(=O)N[C@@H](CCc3cc(F)c(C(F)(F)F)c(F)c3)C(=O)N2C1` [PP2141], the “NRAS/KRAS (ratio of KD value with respect to NRAS to KD value with respect to KRAS)” value in assay [1] (SPR, GDP-bound NRAS wild-type vs GDP-bound KRAS wild-type) is “A (a compound having 10 or more and less than 20 is denoted as A)”. The “HRAS/KRAS (ratio of KD value with respect to HRAS to KD value with respect to KRAS)” value in assay [2] (SPR, GDP-bound HRAS wild-type vs GDP-bound KRAS wild-type) was “A (a compound having 10 or more and less than 20 is denoted as A)”.
Consider `CC[C@H](C)[C@@H]1NC(=O)[C@H](CC)N(C)C(=O)C[C@@H](C(=O)N(C)C)N(C)C(=O)[C@H](C2CCCC2)N(C)C(=O)C2(CCC2)NC(=O)[C@@H]2C[C@@H](F)CN2C(=O)[C@H](CCc2cc(F)c(C(F)(F)F)c(F)c2)NC(=O)CN(C)C(=O)[C@H](Cc2ccc(C(F)(F)F)cc2)N2CC/C=C\C[C@@H](C2=O)N(C)C(=O)CN(C)C1=O` [PP1131], for which the “NRAS/KRAS (ratio of KD value with respect to NRAS to KD value with respect to KRAS)” value in assay [1] (setting [4]) was “A (a compound having 10 or more and less than 20 is denoted as A)”. Further, the “HRAS/KRAS (ratio of KD value with respect to HRAS to KD value with respect to KRAS)” value in assay [2] (setting [5]) was “B (a compound having 3 or more and less than 10 is denoted as B)”.
For the molecule `CC[C@H](C)[C@@H]1NC(=O)[C@H](CC)N(C)C(=O)C[C@@H](C(=O)N(C)C)N(C)C(=O)[C@H](C2CCCC2)N(C)C(=O)C2(CCC2)NC(=O)[C@@H]2C[C@@H](N3CCC(F)(F)CC3)CN2C(=O)[C@H](CCc2cc(F)c(C(F)(F)F)c(F)c2)NC(=O)CN(C)C(=O)[C@H](Cc2ccc(C(F)(F)F)cc2)N2CCCC[C@@H](C2=O)N(C)C(=O)CN(C)C1=O` [PP0656], the “NRAS/KRAS (ratio of KD value with respect to GDP-bound NRAS wild-type protein to KD value with respect to KRAS)” value in assay [1] (SPR) was “C (A compound having a KD ratio of 0.1 or more and less than 3 is denoted as C)”. In addition, in assay [2] (SPR), the “HRAS/KRAS (ratio of KD value with respect to GDP-bound HRAS wild-type protein to KD value with respect to KRAS)” value was “C (A compound having a KD ratio of 0.1 or more and less than 3 is denoted as C)”.
In the case of `CCC[C@H]1C(=O)N[C@@H]([C@@H](C)CC)C(=O)N(C2CC2)CC(=O)N(C)[C@H]2C/C=C\CCN(C2=O)[C@@H](CC2CCC(F)(F)CC2)C(=O)N(C)CC(=O)N[C@@H](CCc2ccc(Cl)c(Cl)c2)C(=O)N2C[C@H](OCC)C[C@H]2C(=O)NC2(CC(C)(C)C2)C(=O)N(C)[C@@H](C2CCCC2)C(=O)N(C)[C@H](C(=O)N(C)C)CC(=O)N1C` [PP2567], in assay [1] (class symbols), the “NRAS/KRAS (ratio of KD value with respect to GDP-bound NRAS wild-type protein to KD value with respect to KRAS)” value was “A (a compound having 10 or more and less than 20 is denoted as A)”. The “HRAS/KRAS (ratio of KD value with respect to GDP-bound HRAS wild-type protein to KD value with respect to KRAS)” value in assay [2] (class symbols) was “A (a compound having 10 or more and less than 20 is denoted as A)”.
Regarding `CC[C@H](C)[C@@H]1NC(=O)[C@H](COC)N(C)C(=O)C[C@@H](C(=O)N2CCOCC2)N(C)C(=O)[C@H](C2CCCC2)N(C)C(=O)C2(CCCC2)NC(=O)[C@@H]2C[C@H](O)CN2C(=O)[C@H](CCc2cc(F)c(C(F)(F)F)c(F)c2)NC(=O)CN(C)C(=O)[C@H](Cc2ccc(C(F)(F)F)cc2)N2CCCCC[C@@H](C2=O)N(C)C(=O)CN(C)C1=O` [PP0847], the “NRAS/KRAS (ratio of KD value with respect to NRAS to KD value with respect to KRAS)” value in assay [1] (setting [4]) was “B (a compound having 3 or more and less than 10 is denoted as B)”. Also, the “HRAS/KRAS (ratio of KD value with respect to HRAS to KD value with respect to KRAS)” value in assay [2] (setting [5]) is “B (a compound having 3 or more and less than 10 is denoted as B)”.
With `CCC[C@H]1C(=O)N[C@@H]([C@@H](C)CC)C(=O)N(C)CC(=O)N(C)[C@H]2C/C=C\CCN(C2=O)[C@@H](Cc2ccc(C(F)(F)F)cc2)C(=O)N(C)CC(=O)N[C@@H](CCc2cc(F)c(C(F)(F)F)c(F)c2)C(=O)N2C[C@H](OCC)C[C@H]2C(=O)NC2(CCC2)C(=O)N(C)[C@@H](C2CCCC2)C(=O)N(C)[C@H](C(=O)N(C)CCC)CC(=O)N1C` [PP1389], the “NRAS/KRAS (ratio of KD value for GDP-bound NRAS wild-type protein to KD value for KRAS)” value in assay [1] (SPR, KD ratio class) was “AA (a compound having 20 or more is denoted as AA)”. In addition, the “HRAS/KRAS (ratio of KD value for GDP-bound HRAS wild-type protein to KD value for KRAS)” value in assay [2] (SPR, KD ratio class) is “A (a compound having 10 or more and less than 20 is denoted as A)”.
For the molecule `CCC(CC)[C@H]1C(=O)N(C)[C@H](C(=O)N(C)C)CC(=O)N(C)[C@H]2CCC/C=C/c3ccc(cc3)C[C@@H](C(=O)N(C)CC(=O)N[C@@H](CCc3cc(F)c(C(F)(F)F)c(F)c3)C(=O)N3CCC[C@H]3C(=O)NC3(CC(C)(C)C3)C(=O)N1C)N1CC/C=C\C[C@@H](C1=O)N(C)C(=O)CN(C)C(=O)[C@H]([C@@H](C)CC)NC2=O` [PP2600], in assay [1] (class symbols), the “NRAS/KRAS (ratio of KD value with respect to GDP-bound NRAS wild-type protein to KD value with respect to KRAS)” value was “A (a compound having 10 or more and less than 20 is denoted as A)”. Moreover, the “HRAS/KRAS (ratio of KD value with respect to GDP-bound HRAS wild-type protein to KD value with respect to KRAS)” value in assay [2] (class symbols) was “A (a compound having 10 or more and less than 20 is denoted as A)”.
